The target in test [1] is sodium channel (Nach). Briefly: Inhibition of binding of [3H]BTX-B to rat forebrain homogenates. To be noted: extrapolated IC50; [3H]BTX-B binding. The procedure: Experiments were performed using forebrain (whole brain less cerebellum/medulla) from Male Wistar rats weighing 175-250 g. All efforts were made to reduce the number of animals used and all experiments were carried out in accordance with the UK Animals (Scientific Procedures) Act, 1986 and the European Community Council Directive of 24 Nov. 1986 (86/609/EEC). Following killing of animals by stunning and decapitation, the forebrain (whole brain less cerebellum/medulla) was rapidly dissected and transferred to a weighed tube containing ice-cold 0.25M sucrose.
Homogenates were prepared by transferring the known weight of forebrain to a cooled tube containing 9 volumes of ice-cold 50 mM pH 7.4 HEPES buffer. The mixture was homogenised @ 4° by 3×5 sec bursts of an Ultra-Turrax™ homogeniser set at maximum speed. The resulting homogenate was centrifuged at 40,000×g (average) at 4° for 15 min and the supernatant discarded. The resulting pellet was resuspended in 9 volumes of fresh ice-cold pH 7.4 buffer (as above), the centrifugation step was repeated and the resulting pellet resuspended in the [^3H]BTX-B binding buffer at a concentration of 20-25 mg wet weight per ml assay buffer.
Both assays were carried out using 14 ml polypropylene test tubes to which a range of concentrations of the compounds under test were added.
[^3H]BTX-B binding was carried out using the method described by Catterall et al (1981), except that both bovine serum albumin and TTX were omitted from the incubation medium.
IC50 values were obtained from radioligand displacement or guanidine flux inhibition curves by plotting log10 concentration vs bound ligand/guanidine uptake according the equation:— y=Rmin+Rsp/{1+exp [−n(x−C)]}
and • C=IC50 (i.e. concentration required to inhibit 50% of specific binding Hippocampal Slice Assay

Test [2] addresses T1, DiHydroFolate Reductase (DHFR) (Rattus norvegicus, UniProt Q920D2).
T1 construct: from tissue; host or cells: rat liver homogenate, 47,500 x g supernatant
T1 sequence (Q920D2 1-187): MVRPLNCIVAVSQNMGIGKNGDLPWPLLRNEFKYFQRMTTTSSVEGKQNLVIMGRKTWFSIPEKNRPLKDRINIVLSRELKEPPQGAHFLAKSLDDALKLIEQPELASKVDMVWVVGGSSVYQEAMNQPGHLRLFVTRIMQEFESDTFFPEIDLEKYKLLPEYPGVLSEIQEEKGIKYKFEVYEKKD
Briefly: Inhibition of binding of [3H]methotrexate to rat liver homogenate supernatant (DHFR). To be noted: read-out: DHFR (% inhibition @ 125 μm). The method, then: All steps were carried out at 4° (or on ice). Freshly dissected rat liver was dissected into 0.25M ice-cold Sucrose and subsequently homogenised (U-turrax) in 50 mM pH 6.0 phosphate buffer (10 ml/g tissue) containing 15 mM Dithiothreitol. The resulting homogenate was centrifuged @ 47,500×g for 20 min and supernatant (filtered through cotton wool to remove fatty lumps) stored @-80° before use (Rothenberg et al).
Inhibition of the binding of [^3H]methotrexate to rat liver homogenate supernatant fractions were carried out essentially as described by Arons et al, 1975.

Molecules are shown by their SMILES.

With `Nc1nnc(C2(c3ccccc3)CCCCC2)c(N)n1` [CEN-230], the IC50 (as a rule, the midpoint of a concentration-inhibition curve) in test [1] is 23 µM. The inhibition (in general, the percentage by which the read-out fell short of the control) at […] in test [2] worked out at 0%. Consider `COc1ccc(C2(c3nnc(N)nc3N)CCCCC2)cc1` [CEN-231], for which the IC50 in test [1] is 1 µM.

As for `Nc1nnc(C2(c3ccccc3)CCCC2)c(N)n1` [CEN-232], in test [1], the IC50 is 5 µM. Further, the inhibition at […] in test [2] came out at 100%. On the same counts, the results for `COc1ccc(C2(c3nnc(N)nc3N)CCCC2)cc1` [CEN-234] are 3 µM and 22%. On the same counts, the results for `Nc1nnc(C2(c3ccc(Cl)cc3Cl)CC2)c(N)n1` [CEN-235] are 8 µM and 63%. For `Nc1nnc(C2(c3cccc(F)c3)CCCC2)c(N)n1` [CEN-236], in that order: 4 µM and 14%. Regarding `Cc1ccc(C2(c3nnc(N)nc3N)CCCC2)cc1` [CEN-237], the IC50 in test [1] is less than 0.5 µM. Besides, the inhibition at […] in test [2] was determined as 70%.

Take `Nc1nnc(C2CC2c2ccccc2)c(N)n1` (stereo not drawn) [CEN-238]: the IC50 in test [1] was more than 190 µM. For `Cc1ccc(C2(c3nnc(N)nc3N)CCCCC2)cc1` [CEN-239], the IC50 in test [1] was less than 0.5 µM. Besides, in test [2], the inhibition at […] is 73%.

For the compound `Nc1nnc(C2(c3ccccc3)CC2)c(N)n1` [CEN-240], the inhibition at […] in test [2] was 8%.

`Nc1nnc(C(Cc2ccccc2)c2ccccc2)c(N)n1` (stereo not drawn) [CEN-241]: the inhibition at […] in test [2] came out at 90%.

Turning to `COc1ccc(C2(c3nnc(N)nc3N)CC2)cc1` [CEN-244], the IC50 in test [1] is 115 µM. Moreover, the inhibition at […] in test [2] came to 0%. On the same counts, the results for `Nc1nnc(-c2cccc(OCc3cccc4ccccc34)c2)c(N)n1` [CEN-245] are 57 µM and 55%. With `Nc1nnc(C(c2ccc(F)cc2)c2ccc(F)cc2)c(N)n1` [CEN-247], in test [1], the 50% inhibitory concentration (IC50) was 9 µM. Further, the inhibition at […] in test [2] worked out at 0%.
